Test system: MV-4-11 cells
Assay: Gene expression microarray analysis (Affymetrix PrimeView) and GSEA
Type: cell-based, human
Parameters: RFU PODN (11730768_x_at) / Fold change /veh PODN (11730768_x_at) / RFU LINC00158 (11744669_a_at) / Fold change /veh LINC00158 (11744669_a_at) / RFU DUSP10 (11751237_a_at) / Fold change /veh DUSP10 (11751237_a_at) / RFU ID3 (11757404_x_at) / Fold change /veh ID3 (11757404_x_at) / RFU PLEKHG5 (11737974_s_at) / Fold change /veh PLEKHG5 (11737974_s_at) / RFU LRRC4B (11730491_at) / Fold change /veh LRRC4B (11730491_at) / RFU GIMAP4 (11747438_a_at) / Fold change /veh GIMAP4 (11747438_a_at) / RFU KRT8 (11758183_x_at) / Fold change /veh KRT8 (11758183_x_at) / RFU CNN1 (11734310_a_at) / Fold change /veh CNN1 (11734310_a_at) / RFU VPS37D (11726825_at) / Fold change /veh VPS37D (11726825_at) / RFU C10orf10 (11716522_x_at) / Fold change /veh C10orf10 (11716522_x_at) / RFU KIR2DL2 /// KIR2DL4 /// KIR2DL5A /// KIR2DL5B /// KIR2DS1 /// KIR2DS2 /// KIR2DS3 /// KIR2DS4 /// KIR3DL3 /// KIR3DL3 /// KIR3DS1 (11738374_at) / Fold change /veh KIR2DL2 /// KIR2DL4 /// KIR2DL5A /// KIR2DL5B /// KIR2DS1 /// KIR2DS2 /// KIR2DS3 /// KIR2DS4 /// KIR3DL3 /// KIR3DL3 /// KIR3DS1 (11738374_at) / RFU C1QL1 (11718748_at) / Fold change /veh C1QL1 (11718748_at) / RFU TMPRSS4 (11747572_a_at) / Fold change /veh TMPRSS4 (11747572_a_at) / RFU HAMP (11756126_x_at) / Fold change /veh HAMP (11756126_x_at) / RFU RNFT2 (11725882_a_at) / Fold change /veh RNFT2 (11725882_a_at) / RFU NR4A2 (11747474_a_at) / Fold change /veh NR4A2 (11747474_a_at) / RFU ABCC12 (11746883_a_at) / Fold change /veh ABCC12 (11746883_a_at) / RFU TMEM136 (11760407_x_at) / Fold change /veh TMEM136 (11760407_x_at) / RFU CLDN22 /// WWC2 (11732394_at) / Fold change /veh CLDN22 /// WWC2 (11732394_at) / RFU HLA-DPB1 (11760878_x_at) / Fold change /veh HLA-DPB1 (11760878_x_at) / RFU SPINT1 (11716480_a_at) / Fold change /veh SPINT1 (11716480_a_at) / RFU GAP43 (11754022_s_at) / Fold change /veh GAP43 (11754022_s_at) / RFU A4GNT (11735810_at) / Fold change /veh A4GNT (11735810_at) / RFU PRB3 (11715151_x_at) / Fold change /veh PRB3 (11715151_x_at) / RFU TUBB4B (11761932_at) / Fold change /veh TUBB4B (11761932_at) / RFU CAPN14 (11732068_a_at) / Fold change /veh CAPN14 (11732068_a_at) / RFU TMCC2 (11721928_a_at) / Fold change /veh TMCC2 (11721928_a_at) / RFU IRGQ (11745062_a_at) / Fold change /veh IRGQ (11745062_a_at) / RFU FAM174B (11720279_a_at) / Fold change /veh FAM174B (11720279_a_at) / RFU TMPRSS4 (11748680_a_at) / Fold change /veh TMPRSS4 (11748680_a_at) / RFU FAM212B (11763350_a_at) / Fold change /veh FAM212B (11763350_a_at) / RFU PLEKHG5 (11743358_a_at) / Fold change /veh PLEKHG5 (11743358_a_at) / RFU ZSCAN30 (11745921_a_at) / Fold change /veh ZSCAN30 (11745921_a_at) / RFU CMKLR1 (11741424_a_at) / Fold change /veh CMKLR1 (11741424_a_at) / RFU LOC101060620 /// MAPK8IP1 (11723275_at) / Fold change /veh LOC101060620 /// MAPK8IP1 (11723275_at) / RFU SPTSSB (11747773_x_at) / Fold change /veh SPTSSB (11747773_x_at) / RFU PRSS12 (11739890_at) / Fold change /veh PRSS12 (11739890_at) / RFU BIN1 (11741810_x_at) / Fold change /veh BIN1 (11741810_x_at) / RFU WNT11 (11732464_a_at) / Fold change /veh WNT11 (11732464_a_at) / RFU C10orf10 (11716521_a_at) / Fold change /veh C10orf10 (11716521_a_at) / RFU C5orf56 (11738089_at) / Fold change /veh C5orf56 (11738089_at) / RFU CYB561 (11721691_x_at) / Fold change /veh CYB561 (11721691_x_at) / RFU ANKRD19P (11752326_a_at) / Fold change /veh ANKRD19P (11752326_a_at) / RFU OR2T12 /// OR2T33 /// OR2T8 (11738714_s_at) / Fold change /veh OR2T12 /// OR2T33 /// OR2T8 (11738714_s_at) / RFU VCAN (11748164_a_at) / Fold change /veh VCAN (11748164_a_at) / RFU JSRP1 (11732532_at) / Fold change /veh JSRP1 (11732532_at) / RFU KRTAP10-11 (11738290_x_at) / Fold change /veh KRTAP10-11 (11738290_x_at) / RFU MYO3A (11730013_a_at) / Fold change /veh MYO3A (11730013_a_at) / RFU EBF3 (11725865_a_at) / Fold change /veh EBF3 (11725865_a_at) / RFU CAMK2N1 (11719241_x_at) / Fold change /veh CAMK2N1 (11719241_x_at) / RFU C5orf56 (11738088_a_at) / Fold change /veh C5orf56 (11738088_a_at) / RFU OLFML3 (11715873_a_at) / Fold change /veh OLFML3 (11715873_a_at) / RFU LOC100653217 /// NTM (11731650_a_at) / Fold change /veh LOC100653217 /// NTM (11731650_a_at) / RFU MAPK11 (11762145_a_at) / Fold change /veh MAPK11 (11762145_a_at) / RFU FIZ1 (11724087_x_at) / Fold change /veh FIZ1 (11724087_x_at) / RFU OASL (11726364_x_at) / Fold change /veh OASL (11726364_x_at) / RFU SOX15 (11748057_x_at) / Fold change /veh SOX15 (11748057_x_at) / RFU CD79A (11719716_a_at) / Fold change /veh CD79A (11719716_a_at) / RFU HIST1H1D (11736915_at) / Fold change /veh HIST1H1D (11736915_at) / RFU CASKIN2 (11723855_a_at) / Fold change /veh CASKIN2 (11723855_a_at) / RFU LOC730098 (11760151_x_at) / Fold change /veh LOC730098 (11760151_x_at) / RFU OR4N2 (11742367_at) / Fold change /veh OR4N2 (11742367_at) / RFU PRRT2 (11749266_a_at) / Fold change /veh PRRT2 (11749266_a_at) / RFU SNX32 (11753110_a_at) / Fold change /veh SNX32 (11753110_a_at) / RFU CDHR5 (11726645_a_at) / Fold change /veh CDHR5 (11726645_a_at) / RFU RCAN1 (11760418_a_at) / Fold change /veh RCAN1 (11760418_a_at) / RFU FAM167A (11723789_a_at) / Fold change /veh FAM167A (11723789_a_at) / RFU FAM26E (11764081_at) / Fold change /veh FAM26E (11764081_at) / RFU ISYNA1 (11749810_s_at) / Fold change /veh ISYNA1 (11749810_s_at) / RFU ACY1 (11761880_at) / Fold change /veh ACY1 (11761880_at) / RFU 11764098_at / Fold change /veh 11764098_at / RFU SAMD14 (11745864_x_at) / Fold change /veh SAMD14 (11745864_x_at) / RFU NPB (11741838_a_at) / Fold change /veh NPB (11741838_a_at) / RFU TMPRSS6 (11731388_a_at) / Fold change /veh TMPRSS6 (11731388_a_at) / RFU KRTAP10-2 (11738614_at) / Fold change /veh KRTAP10-2 (11738614_at) / RFU ARHGAP8 /// PRR5-ARHGAP8 (11727945_x_at) / Fold change /veh ARHGAP8 /// PRR5-ARHGAP8 (11727945_x_at) / RFU KRTAP5-7 /// NADSYN1 (11734609_at) / Fold change /veh KRTAP5-7 /// NADSYN1 (11734609_at) / RFU RASL12 (11751679_a_at) / Fold change /veh RASL12 (11751679_a_at) / RFU CDKN2B (11736163_a_at) / Fold change /veh CDKN2B (11736163_a_at) / RFU PRF1 (11729649_at) / Fold change /veh PRF1 (11729649_at) / RFU, ZNF638 /// ZNF638-IT1 / Fold change vs veh, ZNF638 /// ZNF638-IT1 / RFU, PANK3 / Fold change vs veh, PANK3 / RFU, SH3YL1 / Fold change vs veh, SH3YL1 / RFU, ZEB2 / Fold change vs veh, ZEB2 / RFU, NRIP1 / Fold change vs veh, NRIP1 / RFU, PTTG1IP / Fold change vs veh, PTTG1IP / RFU, CAPN2 / Fold change vs veh, CAPN2 / RFU, MED14 / Fold change vs veh, MED14 / RFU, SNORA58 / Fold change vs veh, SNORA58 / RFU, C1orf63 / Fold change vs veh, C1orf63 / RFU, LRRFIP1 / Fold change vs veh, LRRFIP1 / RFU, NDUFAF7 / Fold change vs veh, NDUFAF7 / RFU, SLC12A2 / Fold change vs veh, SLC12A2 / RFU, IBTK / Fold change vs veh, IBTK / RFU, ESF1 / Fold change vs veh, ESF1 / Fold change vs veh, TMEM50B / RFU, TAOK1 / Fold change vs veh, TAOK1 / RFU, ACBD3 / Fold change vs veh, ACBD3 / RFU, TMA16 / Fold change vs veh, TMA16 / RFU, RWDD3 / Fold change vs veh, RWDD3 / RFU, BCAT1 / Fold change vs veh, BCAT1 / RFU, EDEM3 / Fold change vs veh, EDEM3 / RFU, TMEM33 / Fold change vs veh, TMEM33 / RFU, WDR75 / Fold change vs veh, WDR75 / RFU, AHCTF1 / Fold change vs veh, AHCTF1 / RFU, TFRC / Fold change vs veh, TFRC / RFU, ZDHHC17 / Fold change vs veh, ZDHHC17 / RFU, NOM1 / Fold change vs veh, NOM1 / RFU, ARL8B / Fold change vs veh, ARL8B / RFU, ZBTB11 / Fold change vs veh, ZBTB11 / RFU, TAMM41 / Fold change vs veh, TAMM41 / RFU, KIAA1704 /// LOC100996395 / Fold change vs veh, KIAA1704 /// LOC100996395 / RFU, ING1 / Fold change vs veh, ING1 / RFU, TRMT61B / Fold change vs veh, TRMT61B / RFU, FUBP3 / Fold change vs veh, FUBP3 / RFU, TP53 / Fold change vs veh, TP53 / RFU, TNKS2 / Fold change vs veh, TNKS2 / RFU, ZFP14 / Fold change vs veh, ZFP14 / RFU, ACTR2 / Fold change vs veh, ACTR2 / RFU, PPP3R1 / Fold change vs veh, PPP3R1 / RFU, PIK3R1 / Fold change vs veh, PIK3R1 / RFU, HNRNPA1 / Fold change vs veh, HNRNPA1 / RFU, RNF170 / Fold change vs veh, RNF170 / RFU, ZNF28 / Fold change vs veh, ZNF28 / RFU, RNGTT / Fold change vs veh, RNGTT / RFU, OGT / Fold change vs veh, OGT / RFU, BRD1 / Fold change vs veh, BRD1 / RFU, MARS / Fold change vs veh, MARS / RFU, ZNF655 / Fold change vs veh, ZNF655 / RFU, FAHD1 / Fold change vs veh, FAHD1 / RFU, BDP1 / Fold change vs veh, BDP1 / RFU, LRRCC1 / Fold change vs veh, LRRCC1 / RFU, ARID1A / Fold change vs veh, ARID1A / RFU, ZNF146 / Fold change vs veh, ZNF146 / RFU, ZNF330 / Fold change vs veh, ZNF330 / RFU, GPN3 / Fold change vs veh, GPN3 / RFU, C9orf123 / Fold change vs veh, C9orf123 / RFU, N4BP2L2 / Fold change vs veh, N4BP2L2 / RFU, ARFIP1 / Fold change vs veh, ARFIP1 / RFU, FAM179B / Fold change vs veh, FAM179B / RFU, BCL10 / Fold change vs veh, BCL10 / RFU, UHRF1BP1L / Fold change vs veh, UHRF1BP1L / RFU, BET1 / Fold change vs veh, BET1 / RFU, CNOT2 / Fold change vs veh, CNOT2 / RFU, ZNF268 / Fold change vs veh, ZNF268 / Fold change vs veh, ZNF507 / RFU, DGCR2 / Fold change vs veh, DGCR2 / RFU, WDSUB1 / Fold change vs veh, WDSUB1 / Fold change vs veh, HSP90B1 /// MIR3652 / RFU, ADSS / Fold change vs veh, ADSS / RFU, GK / Fold change vs veh, GK / RFU, ZNF148 / Fold change vs veh, ZNF148 / RFU, TAF9 / Fold change vs veh, TAF9 / RFU, SLC1A5 / Fold change vs veh, SLC1A5 / RFU, SLMO2 / Fold change vs veh, SLMO2 / RFU, ABCC4 / Fold change vs veh, ABCC4 / RFU, LOC101060439 /// RAP1B / Fold change vs veh, LOC101060439 /// RAP1B / RFU, RFX7 / Fold change vs veh, RFX7 / RFU, GTPBP10 / Fold change vs veh, GTPBP10 / RFU, CNEP1R1 / Fold change vs veh, CNEP1R1 / RFU, BIVM-ERCC5 /// ERCC5 / Fold change vs veh, BIVM-ERCC5 /// ERCC5 / RFU, ILF3 / Fold change vs veh, ILF3 / RFU 11762660_at / Fold change /veh 11762660_at / RFU VCAN (11757783_s_at) / Fold change /veh VCAN (11757783_s_at) / RFU DDX43 (11728927_at) / Fold change /veh DDX43 (11728927_at) / RFU KRT8 (11758188_x_at) / Fold change /veh KRT8 (11758188_x_at) / RFU NKD1 (11759106_at) / Fold change /veh NKD1 (11759106_at) / RFU SRD5A1 (11742802_a_at) / Fold change /veh SRD5A1 (11742802_a_at) / RFU TPSAB1 /// TPSB2 (11721975_s_at) / Fold change /veh TPSAB1 /// TPSB2 (11721975_s_at) / RFU GSTM3 (11746129_a_at) / Fold change /veh GSTM3 (11746129_a_at) / RFU IL23R (11737362_x_at) / Fold change /veh IL23R (11737362_x_at) / RFU TMEM51 (11727254_a_at) / Fold change /veh TMEM51 (11727254_a_at) / RFU PIWIL2 (11732686_x_at) / Fold change /veh PIWIL2 (11732686_x_at) / RFU ORM1 (11744905_x_at) / Fold change /veh ORM1 (11744905_x_at) / RFU CCDC152 (11743942_at) / Fold change /veh CCDC152 (11743942_at) / RFU ECM1 (11717891_a_at) / Fold change /veh ECM1 (11717891_a_at) / RFU IL23R (11748794_a_at) / Fold change /veh IL23R (11748794_a_at) / RFU TNFAIP8L3 (11732012_x_at) / Fold change /veh TNFAIP8L3 (11732012_x_at) / RFU MBOAT4 (11741988_at) / Fold change /veh MBOAT4 (11741988_at) / RFU 11764193_at / Fold change /veh 11764193_at / RFU TMEM53 (11763286_at) / Fold change /veh TMEM53 (11763286_at) / RFU MAGEB2 (11727129_at) / Fold change /veh MAGEB2 (11727129_at) / RFU TMEM200A (11744735_a_at) / Fold change /veh TMEM200A (11744735_a_at) / RFU CCDC152 (11751479_a_at) / Fold change /veh CCDC152 (11751479_a_at) / RFU FAM211A (11726209_a_at) / Fold change /veh FAM211A (11726209_a_at) / RFU RGS16 (11746705_a_at) / Fold change /veh RGS16 (11746705_a_at) / RFU VCAN (11755009_s_at) / Fold change /veh VCAN (11755009_s_at) / RFU RHOB (11743442_s_at) / Fold change /veh RHOB (11743442_s_at) / RFU RGS16 (11720943_a_at) / Fold change /veh RGS16 (11720943_a_at) / RFU RGS16 (11720944_at) / Fold change /veh RGS16 (11720944_at) / RFU, VPS4B / Fold change vs veh, VPS4B / RFU, CREB1 / Fold change vs veh, CREB1 / RFU, DNAJC13 / Fold change vs veh, DNAJC13 / RFU, GNAQ / Fold change vs veh, GNAQ / RFU, CDK5R1 / Fold change vs veh, CDK5R1 / RFU, ZRANB3 / Fold change vs veh, ZRANB3 / RFU, CUL4A / Fold change vs veh, CUL4A / RFU, CCNY / Fold change vs veh, CCNY / RFU, UFL1 / Fold change vs veh, UFL1 / RFU, COG3 / Fold change vs veh, COG3 / RFU, DIAPH2 / Fold change vs veh, DIAPH2 / RFU, SKA2 / Fold change vs veh, SKA2 / RFU, AFF3 / Fold change vs veh, AFF3 / RFU, LMF1 / Fold change vs veh, LMF1 / RFU, IPO11 / Fold change vs veh, IPO11 / RFU, DFFB / Fold change vs veh, DFFB / RFU, FOXP1 / Fold change vs veh, FOXP1 / RFU, CARD8 / Fold change vs veh, CARD8 / RFU, STRN3 / Fold change vs veh, STRN3 / RFU, ADK / Fold change vs veh, ADK / RFU, RASSF2 / Fold change vs veh, RASSF2 / RFU, WIPF1 / Fold change vs veh, WIPF1 / RFU, LARP1B / Fold change vs veh, LARP1B / RFU, RASA1 / Fold change vs veh, RASA1 / RFU, RB1 / Fold change vs veh, RB1 / RFU, PPFIA1 / Fold change vs veh, PPFIA1 / RFU, MAT2A / Fold change vs veh, MAT2A / RFU, CCT5 / Fold change vs veh, CCT5 / RFU, WDR92 / Fold change vs veh, WDR92 / RFU, CUX1 / Fold change vs veh, CUX1 / RFU, TTC7A / Fold change vs veh, TTC7A / RFU, TMEM135 / Fold change vs veh, TMEM135 / RFU, DEPTOR / Fold change vs veh, DEPTOR / RFU, CPM / Fold change vs veh, CPM / RFU, DNAJB6 / Fold change vs veh, DNAJB6 / RFU, CACNA2D3 / Fold change vs veh, CACNA2D3 / RFU, DTX4 / Fold change vs veh, DTX4 / RFU, TFCP2 / Fold change vs veh, TFCP2 / RFU, GMCL1 /// GMCL1P1 / Fold change vs veh, GMCL1 /// GMCL1P1 / RFU, AEBP2 / Fold change vs veh, AEBP2 / RFU, SNHG1 /// SNORD22 /// SNORD25 /// SNORD26 /// SNORD27 /// SNORD28 /// SNORD29 /// SNORD31 / Fold change vs veh, SNHG1 /// SNORD22 /// SNORD25 /// SNORD26 /// SNORD27 /// SNORD28 /// SNORD29 /// SNORD31 / Fold change (Aza/veh), C12orf56 (ProbeSet 11735607_a_at) / Fold change (ACY-1035/veh), C12orf56 (ProbeSet 11735607_a_at) / Fold change (Aza/veh), FGFR1OP (ProbeSet 11751329_s_at) / Fold change (ACY-1035/veh), FGFR1OP (ProbeSet 11751329_s_at) / Fold change (Aza/veh), VPS36 (ProbeSet 11739960_a_at) / Fold change (ACY-1035/veh), VPS36 (ProbeSet 11739960_a_at) / RFU SYPL1 (11715823_x_at) / Fold change /veh SYPL1 (11715823_x_at) / RFU IGFBP7 (11715501_s_at) / Fold change /veh IGFBP7 (11715501_s_at) / RFU REEP3 (11722064_at) / Fold change /veh REEP3 (11722064_at) / RFU IGLL1 (11728026_x_at) / Fold change /veh IGLL1 (11728026_x_at): dose or concentration left out as unconfirmed
Conditions: MV-4-11 cells, 48 hours

## Nc1ccc(-c2cccs2)cc1NC(=O)c1ccc2c(c1)cc(C1CC1)n2CCN1CCOCC1 [ACY-1035]
  RFU CYB561 (11721691_x_at): 11.94 RFU
